Data reported in article PMC10600239, “Selective MCL-1 inhibitor ABBV-467 is efficacious in tumor models but is associated with cardiac troponin increases in patients” (Communications Medicine, 2023).
Read-outs that look alike come from different tables or passages of the source.

How the values were obtained:
[1] = Phase 1 first-in-human study (NCT04178902): pharmacokinetics; type: in vivo; conditions: for AUC(0-inf) / AUC(0-t) / clearance / Cmax / Tmax / half-life: plasma; for Cmax: read-out: Cmax; for Tmax: read-out: Tmax (converted)
From the text: Other eligibility criteria included: Eastern Cooperative Oncology Group performance status ≤2, measurable disease as defined by International Myeloma Working Group (IMWG) consensus criteria, an echocardiogram with an ejection fraction ≥50%, and adequate hematologic, hepatic, and renal function. […] Safety evaluations included, but were not limited to, adverse event (AE) monitoring, physical examinations, vital sign measurements, electrocardiogram (ECG), cardiac enzyme monitoring, and clinical laboratory testing (hematology and chemistry) as a measure of safety and tolerability for the entire study duration. Parameters used to determine PK included maximum observed plasma concentration (Cmax), terminal elimination half-life (t1/2), area under the plasma concentration-time curve (AUC) from time 0 to time of last measurable concentration (AUCt), AUC from time 0 to infinity (AUC0-∞), and clearance using non-compartmental methods. […] Preliminary efficacy endpoints were overall response rate (ORR), clinical benefit rate (CBR), and duration of response (DOR) as evaluated per adapted IMWG[36] criteria for MM and per adapted International Working Group (IWG)[37] and European Leukemia Net (ELN)[38] criteria for AML. […]

[2] = 4-week (5-dose) IV infusion toxicity study with 4-week recovery; conditions: rats
Protocol: (§1) range-finding studies, and 4-we ek (5-dose) with recovery GLP studies in rats and dogs. For all studies, test item was
(§2) administered once weekly by 30 -minute IV infusion. Standard GLP endpoints were assessed including in- life (body weights,
(§3) clinical observations, eye exams), electro cardiograms (dog s only), clinical pathology (hematology, clinical chemistry, and
(§4) coagulation) and anatomic pathology (macroscopic and mic roscopic observations and organ weights).
(§5) Study design was generally in compliance with FDA Redbook
(§6) Guidance IV.C. 3.a. and IV.C.3. b. sections on short-term toxicity studies with rodents and non- rodents, respectively (viz.
(§7) Studies were appr oved by the animal use committee of Charles River Laboratories, Mattawan, MI. No animals or
(§8) data were excluded from analysis. Healthy dogs, as determined by veterinary physical examination and clinical pathology,
(§9) were randomized between dose groups using laboratory information management softw are.

[3] = Conscious telemetry-instrumented dog cardiovascular safety pharmacology; type: in vivo; conditions: conscious beagle, IV, at 3-mg/kg dose
From the text: ABBV-467 was profiled in safety pharmacology studies in anesthetized (non-Good Laboratory Practice [GLP]) and telemetry-instrumented conscious (GLP) dog cardiovascular assays (Supplementary Table S6).
Supplementary Table S6: Maj or findings in safety pharmac ology cardiovascular studies c onduc ted with ABBV- […]
Species/Strain Route of Concentrations Sex and N Results
Administration or Doses per Group […]
Anesthetized IV 1, 3, and Male No effects up to a plasma concentration dog 10 m g/ k gN=4 o f 16 .83 µg/mL on […]
aged 8-12 months • Heart rate
• Systemic vascular resistance
At 67 .23 mg/m L, an increase in heart rate and decrease in systemic vascular
Conscious IV 0, 0.3, 1, and Male No effects on blood pressure, heart dog 3 mg/kg N=5–6a rate, or ECG parameters at any dose beagle (plasma concentration of 6.53 µg/mL at (aged 8-12 months 3-m g/ k g do s e )
ECG, electrocardiogram; IC50, half maximal inhibitory concentration; IV, intravenous; QTcV, QT interval correct ed accor ding to the Van de Water formula. No animals or data were excl uded from analysis . […] Healthy dogs, as determined by veterinary physical examination and clinical pathology, were selected for study based on availability without explicit randomization. […] Power analysis has shown a group size of 6 can statistically detect an approximately 20 % alteration in measured parameters w ith α =0.0 5. […]

[4] = 4-week (5-dose) IV infusion toxicity study with 4-week recovery
Protocol: as §1, §2, §3, §4, §5, §6, §7, §8, §9

[5] = human, intravenous, 0.32 mg/kg, Cycle 1 day 1, dose level 0.32 mg/kg (only half of this dose given), N=2, individual values
[6] = human, intravenous, 0.53 mg/kg, Cycle 1 day 1, dose level 0.53 mg/kg (only half of this dose given), N=3
[7] = human, intravenous, 0.53 mg/kg, Cycle 1 day 15, 0.53 mg/kg, N=2, individual values

## Cc1c(Cl)c2c(Cl)c(C)c1-c1c(-c3ccc(F)cc3)sc3ncnc(c13)O[C@@H](C(=O)O)Cc1cc(ccc1OCc1ccnc(-c3ccc(OC[C@H]4COCCO4)cc3)n1)OC[C@@H](CN1CCN(C)CC1)O2 [ABBV-467]
[1]; human, in vivo, 0.265 mg/kg, Cycle 1 Day 1, DOSE_MGKG 0.265, cohort 3, PKTIME 1.5, read-out: CONC_NGML
  concentration at 1.5 h: 14.9 ng/mL
[1]; human, in vivo, 0.265 mg/kg, Cycle 1 Day 1, DOSE_MGKG 0.265, cohort 3, PKTIME 2.5, read-out: CONC_NGML
  concentration at […]: 8.88 ng/mL
[1]; human, in vivo, 0.265 mg/kg, Cycle 1 Day 1, DOSE_MGKG 0.265, cohort 3, PKTIME 8.5, read-out: CONC_NGML
  concentration at […]: 0 ng/mL
[1]; human, in vivo, 0.265 mg/kg, Cycle 1 Day 1, DOSE_MGKG 0.265, cohort 3, PKTIME 24.5, read-out: CONC_NGML
  concentration at […]: 0 ng/mL
[1]; human, in vivo, 0.32 mg/kg, Cycle 1 Day 15, DOSE_MGKG 0.32, cohort 2, PKTIME 0, read-out: CONC_NGML
  concentration at 0 h: 0 ng/mL
[1]; human, in vivo, 0.32 mg/kg, Cycle 1 Day 15, DOSE_MGKG 0.32, cohort 2, PKTIME 0.333333, read-out: CONC_NGML
  concentration at 20 min: 646 ng/mL
[1]; human, in vivo, 0.32 mg/kg, Cycle 1 Day 15, DOSE_MGKG 0.32, cohort 2, PKTIME 8.5, read-out: CONC_NGML
  concentration at […]: 0 ng/mL
[1]; human, in vivo, 0.32 mg/kg, Cycle 1 Day 15, DOSE_MGKG 0.32, cohort 2, PKTIME 24.5, read-out: CONC_NGML
  concentration at […]: 0 ng/mL
[1]; human, in vivo, 0.53 mg/kg, Cycle 1 Day 15, DOSE_MGKG 0.53, cohort 3, PKTIME 0.166667, read-out: CONC_NGML
  concentration at 10 min: 731 ng/mL
[1]; human, in vivo, 0.53 mg/kg, Cycle 1 Day 15, DOSE_MGKG 0.53, cohort 3, PKTIME 0.333333, read-out: CONC_NGML
  concentration at 20 min: 1370 ng/mL
[1]; human, in vivo, 0.53 mg/kg, Cycle 1 Day 15, DOSE_MGKG 0.53, cohort 3, PKTIME 0.5, read-out: CONC_NGML
  concentration at 0.5 h: 1860 ng/mL
[1]; human, in vivo, 0.53 mg/kg, Cycle 1 Day 15, DOSE_MGKG 0.53, cohort 3, PKTIME 1.5, read-out: CONC_NGML
  concentration at 1.5 h: 87.9 ng/mL
[1]; human, in vivo, 0.53 mg/kg, Cycle 1 Day 15, DOSE_MGKG 0.53, cohort 3, PKTIME 2.5, read-out: CONC_NGML
  concentration at […]: 27.3 ng/mL
[1]; human, in vivo, 0.53 mg/kg, Cycle 1 Day 15, DOSE_MGKG 0.53, cohort 3, PKTIME 4.5, read-out: CONC_NGML
  concentration at 4.5 h: 11.3 ng/mL
[1]; human, in vivo, 0.53 mg/kg, Cycle 1 Day 15, DOSE_MGKG 0.53, cohort 3, PKTIME 8.5, read-out: CONC_NGML
  concentration at […]: 0 ng/mL
[1]; human, in vivo, 0.53 mg/kg, Cycle 1 Day 15, DOSE_MGKG 0.53, cohort 3, PKTIME 24.5, read-out: CONC_NGML
  concentration at […]: 0 ng/mL
[1]; [5]
  AUC(0-inf): 167 ng·h/mL
  AUC(0-t): 159 ng·h/mL
  clearance: 15.9 mL/min/kg
  Cmax: 474 ng/mL
  Tmax: 20 min
[1]; human, intravenous, 0.32 mg/kg, Cycle 1 day 1, dose level 0.32 mg/kg (only half of this dose given), N=2, individual values, read-out: t1/2
  half-life: 50.8 min
[1]; [6]
  AUC(0-inf): 435 ng·h/mL
  AUC(0-t): 428 ng·h/mL
  clearance: 10.2 mL/min/kg
[1]; human, intravenous, 0.53 mg/kg, Cycle 1 day 1, dose level 0.53 mg/kg (only half of this dose given), N=3, harmonic mean (pseudo SD), read-out: t1/2
  half-life: 55.5 min
[1]; human, intravenous, 0.53 mg/kg, Cycle 1 day 1, dose level 0.53 mg/kg (only half of this dose given), N=3, median
  Tmax: 30 min
[1]; [7]
  AUC(0-inf): 933 ng·h/mL
  AUC(0-t): 921 ng·h/mL
  clearance: 9.47 mL/min/kg
  Cmax: 1510 ng/mL
  Tmax: 30 min
[1]; human, intravenous, 0.53 mg/kg, Cycle 1 day 15, 0.53 mg/kg, N=2, individual values, read-out: t1/2
  half-life: 63.3 min
[1]; human, intravenous, […], Cycle 1 day 1, dose level […] (only half of this dose given), N=3, harmonic mean (pseudo SD), read-out: t1/2
  half-life: 16.1 min
[1]; human, intravenous, […], Cycle 1 day 1, dose level […] (only half of this dose given), N=3, median
  Tmax: 30 min
[1]; human, intravenous, […], Cycle 1 day 15, […], N=3
  clearance: 10.4 mL/min/kg
[1]; human, intravenous, […], Cycle 1 day 15, […], N=3, median
  Tmax: 30 min
[1]; human, iv, patients, 30-minute IV infusion, 0.08–0.53 mg/kg, read-out: average half-life
  half-life: < 60 min
[1]; patients, 30-minute IV infusion
  time after completion of infusion at which circulating plasma concentrations were eliminated: 4 h
[2]; multidose GLP toxicity study
  impact on cardiovascular endpoints (anatomic, clinical pathology, and/or function): No direct impact
[2]; after a 4-week recovery period
  reversibility of toxicities: partially or fully reversible
[2]; once-weekly dosing
  primary target organs of apoptosis/single-cell necrosis: pancreas, liver, gastrointestinal tract, and the hematopoietic system
[3]
  plasma concentration with no effects on blood pressure, heart rate, or ECG parameters: 6530 ng/mL
[4]; beagle dog, 10 mg/kg after 1 or 2 doses (days 3–10)
  mortality: Mortality
[4]; dogs, after a 4-week recovery period
  reversibility of toxicities: partially or fully reversible
[4]; dogs, once-weekly dosing
  primary target organs of apoptosis/single-cell necrosis: pancreas, liver, gastrointestinal tract, and the hematopoietic system
[4]; multidose GLP toxicity study, dogs
  impact on cardiovascular endpoints (anatomic, clinical pathology, and/or function): No direct impact
